Laboratory results published in US20090131430A1, “PYRIDO'2,3-DIPYRIMIDINES AS ANTI-INFLAMMATORY AGENTS” (priority 2004, published 2009).

test system: TNF-α release from peripheral blood mononuclear cells; experiment: Cell based assay for TNF-α release, LPS stimulation of human PBMNC's (ELISA); details: PBMC, LPS 20 ng/ml, overnight, span over the group, units given in the value
Procedure: Human whole blood was collected in vacutainer tubes containing EDTA as an anti coagulant. A blood sample (7 ml) was carefully layered over 5 ml PMN Cell Isolation Medium (Robbins Scientific) in a 15 ml round bottom centrifuge tubes. The sample was centrifuged at 450-500×g for 30-35 minutes in a swing-out rotor at room temperature. After centrifugation the top band of cells were removed and washed 3 times with PBS w/o calcium or magnesium. The cells were centrifuged at 400×g for 10 minutes at room temperature. The cells were resuspended in Macrophage Serum Free Medium (Gibco BRL) at concentration of 2 million cells/ml.
PBM cells (0.1 ml; 2 million/ml) were co-incubated with 0.1 ml of compound (10-0.41 μM, final concentration) for 1 hour in flat bottom 96 well microtiter plate. Compounds were dissolved in DMSO initially and diluted in TCM for a final concentration of 0.1% DMSO. LPS (Cal biochem, 20 ng/ml, final concentration) was then added at volume of 0.010 ml. Cultures were incubated overnight at 37° C.). Supernatant were then removed and tested by ELISA for TNF-α release. Viability was analyzed using MTT. After 0.1 ml supernatant was collected, 0.1 ml of 0.25 mg/ml of MTT was added to remaining 0.1 ml of cells. The cells were incubated at 37° C. for 2-4 hours, then the O.D was measured at 490-650 nm n.
The TNF-α levels released in the culture medium were quantitated by ELISA. Inhibitory potency was expressed as IC50.

| SMILES | IC50 [nM] |
| --- | --- |
| Cn1c(=O)c(-c2ccccc2Cl)cc2cnc(NC3C4CN(C(=O)Nc5ccc(F)cc5)CC43)nc21 (stereo not shown) [Compound No. 2, 6-[6-(2-Chlorophenyl)-8-methyl-7-oxo-7,8-dihydro-pyrido[2,3-d]pyrimidin-2-ylamino]-3-aza-bicyclo[3.1.0]hexane-3-carboxylic acid-(4-fluorophenyl)-amide] | 12 to 2300 |
| Cn1c(=O)c(-c2ccccc2Cl)cc2cnc(NC3C4CN(S(C)(=O)=O)CC43)nc21 (stereo not shown) [Compound No. 4, 6-(2-Chlorophenyl)-2-(3-methanesulphonyl-3-aza-bicyclo[3.1.0]hex-6-ylamino)-8-methyl-8H-pyrido[2,3-d]pyrimidin-7-one] | 12 to 2300 |
| Cn1c(=O)c(-c2ccccc2Cl)cc2cnc(NC3C4CN(C(=O)OCc5ccccc5)CC43)nc21 (stereo not shown) [Compound No. 6, 6-[6-(2-Chlorophenyl)-8-methyl-7-oxo-7,8-dihydro-pyrido[2,3-d]pyrimidin-2-ylamino]-3-aza-bicyclo[3.1.0]hexane-3-carboxylic acid benzyl ester] | 12 to 2300 |
| O=C(OCc1ccccc1)N1CC2C(C1)C2Nc1ncc2cc(-c3ccccc3Cl)c(=O)n(-c3ccc(F)cc3)c2n1 (stereo not shown) [Compound No. 12, 6-[6-(2-Chlorophenyl)-8-(4-fluorophenyl)-7-oxo-7,8-dihydro-pyrido[2,3-d]pyrimidin-2-ylamino]-3-aza-bicyclo[3.1.0]hexane-3-carboxylic acid benzyl ester] | 12 to 2300 |
| O=c1c(-c2ccccc2Cl)cc2cnc(NCC3C4CN(Cc5ccccc5)CC34)nc2n1-c1ccc(F)cc1 (stereo not shown) [Compound No. 16, 2-[(3-Benzyl-3-aza-bicyclo[3.1.0]hex-6-ylmethyl)-amino]-6-(2-chlorophenyl)-8-(4-fluorophenyl)-8H-pyrido[2,3-d]pyrimidin-7-one] | 12 to 2300 |
| O=c1c(-c2ccccc2Cl)cc2cnc(NC3C4CN(Cc5ccccc5)CC43)nc2n1C1CC1 (stereo not shown) [Compound No. 17, 2-(3-Benzyl-3-aza-bicyclo[3.1.0]hex-6-ylamino)-6-(2-chlorophenyl)-8-cyclopropyl-8H-pyrido[2,3-d]pyrimidin-7-one] | 12 to 2300 |
| O=C(OCc1ccccc1)N1CC2C(C1)C2Nc1ncc2cc(-c3ccccc3Cl)c(=O)n(C3CC3)c2n1 (stereo not shown) [Compound No. 18, 6-[6-(2-Chlorophenyl)-8-cyclopropyl-7-oxo-7,8-dihydro-pyrido[2,3-d]pyrimidin-2-ylamino]-3-aza-bicyclo[3.1.0]hexane-3-carboxylic acid benzyl ester] | 12 to 2300 |
| O=c1c(-c2ccccc2Cl)cc2cnc(NC3C4CNCC43)nc2n1C1CC1 (stereo not shown) [Compound No. 19, 2-(3-Aza-bicyclo[3.1.0]hex-6-ylamino)-6-(2-chlorophenyl)-8-cyclopropyl-8H-pyrido[2,3-d]pyrimidin-7-one] | 12 to 2300 |
| CN1CC2C(C1)C2Nc1ncc2cc(-c3ccccc3Cl)c(=O)n(C3CC3)c2n1 (stereo not shown) [Compound No. 20, 6-(2-Chlorophenyl)-8-cyclopropyl-2-(3-methyl-3-aza-bicyclo[3.1.0]hex-6-ylamino)-8H-pyrido[2,3-d]pyrimidin-7-one] | 12 to 2300 |
| CC(=O)N1CC2C(C1)C2Nc1ncc2cc(-c3ccccc3Cl)c(=O)n(C3CC3)c2n1 (stereo not shown) [Compound No. 23, 2-(3-Acetyl-3-aza-bicyclo[3.1.0]hex-6-ylamino)-6-(2-chlorophenyl)-8-cyclopropyl-8H-pyrido[2,3-d]pyrimidin-7-one] | 12 to 2300 |
| CC(C)(C)CC(C)(C)NC(=O)N1CC2C(C1)C2Nc1ncc2cc(-c3ccccc3Cl)c(=O)n(C3CC3)c2n1 (stereo not shown) [Compound No. 24] | 12 to 2300 |
| O=C(Nc1ccc(F)cc1)N1CC2C(C1)C2Nc1ncc2cc(-c3ccccc3Cl)c(=O)n(C3CC3)c2n1 (stereo not shown) [Compound No. 26, 6-[6-(2-Chlorophenyl)-8-cyclopropyl-7-oxo-7,8-dihydro-pyrido[2,3-d]pyrimidin-2-ylamino]-3-aza-bicyclo[3.1.0]hexane-3-carboxylic acid-(4-fluorophenyl)-amide] | 12 to 2300 |
| O=c1[nH]c2nc(NC3C4CN(Cc5ccccc5)CC43)ncc2cc1-c1ccccc1Cl (stereo not shown) [Compound No. 27, 2-(3-Benzyl-3-aza-bicyclo[3.1.0]hex-6-ylamino)-6-(2-chlorophenyl)-8H-pyrido[2,3-d]pyrimidin-7-one] | 12 to 2300 |
| O=c1c(-c2ccccc2Cl)cc2cnc(NC3C4COCC3CN(Cc3ccccc3)C4)nc2n1C1CC1 (stereo not shown) [Compound No. 33, 2-(7-Benzyl-3-oxa-7-aza-bicyclo[3.3.1]non-9-ylamino)-6-(2-chlorophenyl)-8-cyclopropyl-8H-pyrido[2,3-d]pyrimidin-7-one] | 12 to 2300 |
| N#CCn1c(=O)c(-c2ccccc2Cl)cc2cnc(NC3C4CN(Cc5ccccc5)CC43)nc21 (stereo not shown) [Compound No. 56, [2-(3-Benzyl-3-aza-bicycyclo[3.1.0]hex-6-ylamino)-6-(2-chlorophenyl)-7-oxo-7H-pyrido[2,3-d]pyrimidin-8-yl]-acetonitrile] | 12 to 2300 |
| N#CCn1c(=O)c(-c2ccccc2Cl)cc2cnc(NC3C4CN(C(=O)Nc5ccc(F)cc5)CC43)nc21 (stereo not shown) [Compound No. 57, 6-[6-(2-Chlorophenyl)-8-cyanomethyl-7-oxo-7,8-dihydro-pyrido[2,3-d]pyrimidin-2-ylamino]-3-aza-bicyclo[3.1.0]hexane-3-carboxylic acid (4-fluorophenyl)-amide] | 12 to 2300 |
| O=c1[nH]c2nc(NC3C4CNCC43)ncc2cc1-c1ccccc1Cl (stereo not shown) [Compound No. 58, 2-(3-Aza-bicyclo[3.1.0]hex-6-ylamino)-6-(2-chlorophenyl)-8H-pyrido[2,3-d]pyrimidin-7-one] | 12 to 2300 |
| NC(=O)N1CC2C(C1)C2Nc1ncc2cc(-c3ccccc3Cl)c(=O)n(C3CC3)c2n1 (stereo not shown) [Compound No. 63, 6-[6-(2-Chlorophenyl)-8-cyclopropyl-7-oxo-7,8-dihydro-pyrido[2,3-d]pyrimidin-2-ylamino]-3-aza-bicyclo[3.1.0]hexane-3-carboxylic acid amide] | 12 to 2300 |

test system: not listed separately; experiment: Precipitate formation in the DMSO solvent used; assay type: physicochemical; details: DMSO solvent used in testing

| SMILES | formed a precipitate in the DMSO solvent used |
| --- | --- |
| Cc1ccc(S(=O)(=O)N2CC3C(C2)C3Nc2ncc3cc(-c4ccccc4Cl)c(=O)n(C4CC4)c3n2)cc1 (stereo not shown) [Compound No. 21, 6-(2-Chlorophenyl)-8-cyclopropyl-2-[3-(toluene-4-sulphonyl)-3-aza-bicyclo[3.1.0]hex-6-ylamino]-8H-pyrido[2,3-d]pyrimidin-7-one] | formed a precipitate in the DMSO solvent used |
| CC(C)(C)CC(C)(C)NC(=O)N1CC2C(C1)C2Nc1ncc2cc(-c3ccccc3Cl)c(=O)n(C3CC3)c2n1 (stereo not shown) [Compound No. 24] | formed a precipitate in the DMSO solvent used |
| O=c1c(-c2ccccc2Cl)cc2cnc(NC3C4CN(S(=O)(=O)c5ccc(C(F)(F)F)cc5)CC43)nc2n1C1CC1 (stereo not shown) [Compound No. 37, 6-(2-Chlorophenyl)-8-cyclopropyl-2-[3-(4-trifluoromethylbenzenesulfonyl)-3-aza-bicyclo[3.1.0]hex-6-ylamino]-8H-pyrido[2,3-d]pyrimidin-7-one] | formed a precipitate in the DMSO solvent used |
| Cn1c(=O)c(-c2ccccc2Cl)cc2cnc(NC3C4CN(S(=O)(=O)c5ccccc5)CC43)nc21 (stereo not shown) [Compound No. 41, 2-(3-Benzenesulphonyl-3-aza-bicyclo[3.1.0]hex-6-ylamino)-6-(2-chlorophenyl)-8-methyl-8H-pyrido[2,3-d]pyrimidin-7-one] | formed a precipitate in the DMSO solvent used |
| Cc1ccc(S(=O)(=O)N2CC3C(C2)C3Nc2ncc3cc(-c4ccccc4Cl)c(=O)n(C)c3n2)cc1 (stereo not shown) [Compound No. 43, 6-(2-Chlorophenyl)-8-methyl-2-[3-(toluene-4-sulfonyl)-3-aza-bicyclo[3.1.0]hex-6-ylamino]-8H-pyrido[2,3-d]pyrimidin-7-one] | formed a precipitate in the DMSO solvent used |
| O=c1[nH]c2nc(NC3C4COCC3CN(Cc3ccccc3)C4)ncc2cc1-c1ccccc1Cl (stereo not shown) [Compound No. 61, 2-(7-Benzyl-3-oxa-7-aza-bicyclo[3.3.1]non-9-ylamino)-6-(2-chlorophenyl)-8H-pyrido[2,3-d]pyrimidin-7-one] | formed a precipitate in the DMSO solvent used |

test system: not given; experiment: not given; details: not given

| SMILES | melting point [°C] |
| --- | --- |
| Cn1c(=O)c(-c2ccccc2Cl)cc2cnc(NC3CC4CCCC(C3)N4Cc3ccccc3)nc21 (stereo not shown) | 76.9 to 82 |
| Cn1c(=O)c(-c2ccccc2Cl)cc2cnc(NC3CC4CCC(C3)N4Cc3ccccc3)nc21 (stereo not shown) | 147.4 to 153.8 |
| O=c1c(-c2ccccc2Cl)cc2cnc(NC3C4COCC3CN(Cc3ccccc3)C4)nc2n1-c1ccc(F)cc1 (stereo not shown) [Compound No. 52, 2-(7-Benzyl-3-oxa-7-aza-bicyclo[3.3.1]non-9-ylamino)-6-(2-chlorophenyl)-8-(4-fluorophenyl)-8H-pyrido[2,3-d]pyrimidin-7-one] | 107.4 to 110.4 |
| CCOC(=O)N1CC2C(C1)C2Nc1ncc2cc(-c3ccccc3Cl)c(=O)n(C)c2n1 (stereo not shown) [Compound No. 68, 6-[6-(2-Chlorophenyl)-8-methyl-7-oxo-7,8-dihydro-pyrido[2,-d]pyrimidin-2-ylamino]-3-aza-bicyclo[3.1.0]hexane-3-carboxylic acid ethyl ester] | 118.7 to 125.2 |
